Measured values: patent publication US12459951B2, “Compounds that interact with RAS superfamily proteins for treatment of cancers, inflammatory diseases, rasopathies, and fibrotic disease” (SHY Therapeutics, LLC, priority 2022, dated 2025)
Blank lines part the entries; values can stand above or below the molecule they belong to.

Legend:
Akt phosphorylation = assay: Akt Phosphorylation Assay (western blot), Panc-1; assay type: cell-based, human; settings: at 10 μM, * = activation
How it was run: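 Phospho-Akt (Ser473) was measured by western blot in lysates of KRas G12D Panc-1 cells exposed to test compound for 6 h at 37 °C, either at 10 μM final with 0.3% DMSO or as serial dilutions for IC50. One format used overnight 0.5% FBS starvation followed by a 15 min pulse of 1.5 ng/ml EGF. The other used cells in 10% FBS with no stimulation.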

[1] = tested on: MiaPaca-2 (expressing KRAS G12C mutant); assay: Proliferation Assay (Cell Viability Assay); assay type: cell-based; settings: Homo sapiens, MIA PaCa-2; read-out: Proliferation in MiaPaca-2: IC50
How it was run: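 After 2–4 days' exposure at 37 °C, 5% CO2 to a single 10 μM final concentration or a dilution series (IC50), percent proliferation inhibition was derived from CellTiter 96 Aqueous One viability readings. The medium contained 0.3% DMSO and 10% FBS. KRAS G12C MiaPaca-2 cells were plated at 2000–5000/well the day before.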

TNF-alpha = TNF-alpha Quantification Assay (ELISA), LPS-stimulated RAW 264.7; assay type: cell-based; settings: Mus musculus, RAW264.7; at 10 μM; read-out: TNFα: % inh.
IL6 = assay: IL-6 Quantification Assay (ELISA), LPS-stimulated RAW 264.7; assay type: cell-based; set-up: inhibition: dose or concentration left out as unconfirmed; settings: Mus musculus, RAW264.7; read-out: IL-6: % inh.

SMILES: CO[C@H]1CC[C@@H](Nc2nc(-c3nccn3C)nn3cc(-c4ccn(C(C)C)n4)c(C(C)C)c23)C1 (racemic) [Compound 36, rac 5-Isopropyl-6-(1-isopropyl-1H-pyrazol-3-yl)-N-((1R,3S)-3-methoxycyclopentyl)-2-(1-methyl-1H-imidazol-2-yl)pyrrolo[2,1-f][1,2,4]triazin-4-amine]
% inh of Akt phosphorylation in Panc-1 (Akt phosphorylation): 0 (0% inhibition)
IC50 [1]: > 1000 nM
inhibition at 10 µM (TNF-alpha): 1 to 24%
inhibition (IL6): 50 to 74%

SMILES: COCCNc1nc(-c2nccn2C)nn2cc(-c3cccc(OC)c3Cl)c(-c3ccccc3)c12 [Compound 29, 6-(2-Chloro-3-methoxyphenyl)-N-(2-methoxyethyl)-2-(1-methyl-1H-imidazol-2-yl)-5-phenylpyrrolo[2,1-f][1,2,4]triazin-4-amine]
% inh of Akt phosphorylation in Panc-1 (Akt phosphorylation): D (85-100% inhibition)
IC50 [1]: 510 to 1000 nM
inhibition at 10 µM (TNF-alpha): 75 to 100%
inhibition (IL6): 75 to 100%

SMILES: Cc1c(-c2ccn(C(C)C)n2)cn2nc(-c3nccn3C)nc(Nc3ccncn3)c12 [Compound 55, 6-(1-Isopropyl-1H-pyrazol-3-yl)-5-methyl-2-(1-methyl-1H-imidazol-2-yl)-N-(pyrimidin-4-yl)pyrrolo[2,1-f][1,2,4]triazin-4-amine]
% inh of Akt phosphorylation in Panc-1 (Akt phosphorylation): A* (1-25% activation)
IC50 [1]: < 150 nM
inhibition at 10 µM (TNF-alpha): 1 to 24%
inhibition (IL6): 1 to 24%

SMILES: Cc1c(-c2ccn(C)n2)cn2nc(-c3nccn3C)nc(Nc3cc(OC(F)F)n(C)n3)c12 [Compound 254, N-(5-(Difluoromethoxy)-1-methyl-1H-pyrazol-3-yl)-5-methyl-2-(1-methyl-1H-imidazol-2-yl)-6-(1-methyl-1H-pyrazol-3-yl)pyrrolo[2,1-f][1,2,4]triazin-4-amine]
% inh of Akt phosphorylation in Panc-1 (Akt phosphorylation): D* (85-100% activation)
IC50 [1]: > 1000 nM
inhibition at 10 µM (TNF-alpha): 0%
inhibition (IL6): 25 to 49%

SMILES: COc1cc(Nc2nc(-c3nccn3C)nn3cc(-c4cccc(OC)n4)c(C)c23)ncn1 [Compound 65, 6-(6-Methoxypyridin-2-yl)-N-(6-methoxypyrimidin-4-yl)-5-methyl-2-(1-methyl-1H-imidazol-2-yl)pyrrolo[2,1-f][1,2,4]triazin-4-amine]
% inh of Akt phosphorylation in Panc-1 (Akt phosphorylation): D* (85-100% activation)
IC50 [1]: < 150 nM
inhibition at 10 µM (TNF-alpha): 1 to 24%
inhibition (IL6): 1 to 24%

SMILES: COc1cccc(Nc2nc(-c3nccn3C)nn3ccc(-c4ccccc4)c23)n1 [Compound 40, N-(6-Methoxypyridin-2-yl)-2-(1-methyl-1H-imidazol-2-yl)-5-phenylpyrrolo[2,1-f][1,2,4]triazin-4-amine]
% inh of Akt phosphorylation in Panc-1 (Akt phosphorylation): 0 (0% inhibition)
IC50 [1]: > 1000 nM
inhibition at 10 µM (TNF-alpha): 25 to 49%
inhibition (IL6): 75 to 100%

SMILES: COc1cccc(-c2cn3nc(-c4nccn4C)nc(N[C@H]4C[C@H](OC)C4)c3c2-c2ccn(C)n2)c1F [Compound 47, 6-(2-Fluoro-3-methoxyphenyl)-N-((1r,3r)-3-methoxycyclobutyl)-2-(1-methyl-1H-imidazol-2-yl)-5-(1-methyl-1H-pyrazol-3-yl)pyrrolo[2,1-f][1,2,4]triazin-4-amine]
% inh of Akt phosphorylation in Panc-1 (Akt phosphorylation): C* (46-84% activation)
IC50 [1]: > 1000 nM
inhibition at 10 µM (TNF-alpha): 1 to 24%
inhibition (IL6): 0%

The next lines start with results.

IC50 [1]: < 150 nM
SMILES: Cc1c(-c2ccn(C)n2)cn2nc(-c3nccn3C)nc(Nc3ccc(-c4ccccn4)cn3)c12 [Compound 249, N-([2,3′-Bipyridin]-6′-yl)-5-methyl-2-(1-methyl-1H-imidazol-2-yl)-6-(1-methyl-1H-pyrazol-3-yl)pyrrolo[2,1-f][1,2,4]triazin-4-amine]
% inh of Akt phosphorylation in Panc-1 (Akt phosphorylation): D* (85-100% activation)
inhibition at 10 µM (TNF-alpha): 1 to 24%
inhibition (IL6): 75 to 100%

IC50 [1]: > 1000 nM
SMILES: COC1CCCN(c2nc(-c3ccccn3)nn3cc(-c4ccn(C(C)C)n4)c(-c4ccccc4)c23)C1 (racemic) [Compound 27, rac 6-(1-Isopropyl-1H-pyrazol-3-yl)-4-(3-methoxypiperidin-1-yl)-5-phenyl-2-(pyridin-2-yl)pyrrolo[2,1-f][1,2,4]triazine]
% inh of Akt phosphorylation in Panc-1 (Akt phosphorylation): A* (1-25% activation)
inhibition at 10 µM (TNF-alpha): 25 to 49%
inhibition (IL6): 75 to 100%

IC50 [1]: < 150 nM
SMILES: Cc1c(-c2ccn(C(C)C)n2)cn2nc(-c3nccn3C)nc(Nc3ccccn3)c12 [Compound 57, 6-(1-Isopropyl-1H-pyrazol-3-yl)-5-methyl-2-(1-methyl-1H-imidazol-2-yl)-N-(pyridin-2-yl)pyrrolo[2,1-f][1,2,4]triazin-4-amine]
% inh of Akt phosphorylation in Panc-1 (Akt phosphorylation): D* (85-100% activation)
inhibition at 10 µM (TNF-alpha): 0%
inhibition (IL6): 1 to 24%

IC50 [1]: > 1000 nM
SMILES: COc1ccc(-c2cn3nc(-c4nccn4C)nc(Nc4cc(OC)ncn4)c3c2C)cn1 [Compound 66, 6-(6-Methoxypyridin-3-yl)-N-(6-methoxypyrimidin-4-yl)-5-methyl-2-(1-methyl-1H-imidazol-2-yl)pyrrolo[2,1-f][1,2,4]triazin-4-amine]
% inh of Akt phosphorylation in Panc-1 (Akt phosphorylation): D* (85-100% activation)
inhibition at 10 µM (TNF-alpha): 1 to 24%
inhibition (IL6): 1 to 24%

IC50 [1]: < 150 nM
SMILES: Cc1c(-c2ccn(C(C)C)n2)cn2nc(-c3nccn3C)nc(Nc3cnccn3)c12 [Compound 62, 6-(1-Isopropyl-1H-pyrazol-3-yl)-5-methyl-2-(1-methyl-1H-imidazol-2-yl)-N-(pyrazin-2-yl)pyrrolo[2,1-f][1,2,4]triazin-4-amine]
% inh of Akt phosphorylation in Panc-1 (Akt phosphorylation): D* (85-100% activation)
inhibition at 10 µM (TNF-alpha): 1 to 24%
inhibition (IL6): 25 to 49%

IC50 [1]: < 150 nM
SMILES: COc1cc(Nc2nc(-c3nccn3C)nn3cc(-c4ccn(C)n4)c(C)c23)ncc1-n1cnc(C)c1 [Compound 244, N-(4-Methoxy-5-(4-methyl-1H-imidazol-1-yl)pyridin-2-yl)-5-methyl-2-(1-methyl-1H-imidazol-2-yl)-6-(1-methyl-1H-pyrazol-3-yl)pyrrolo[2,1-f][1,2,4]triazin-4-amine]
% inh of Akt phosphorylation in Panc-1 (Akt phosphorylation): D* (85-100% activation)
inhibition at 10 µM (TNF-alpha): 0%
inhibition (IL6): 0%

IC50 [1]: > 1000 nM
SMILES: Cc1c(-c2ccn(C(C)C)n2)cn2nc(-c3nccn3C)nc(Nc3nc(C4CC4)no3)c12 [Compound 70, 3-Cyclopropyl-N-(6-(1-isopropyl-1H-pyrazol-3-yl)-5-methyl-2-(1-methyl-1H-imidazol-2-yl)pyrrolo[2,1-f][1,2,4]triazin-4-yl)-1,2,4-oxadiazol-5-amine]
% inh of Akt phosphorylation in Panc-1 (Akt phosphorylation): C* (46-84% activation)
inhibition at 10 µM (TNF-alpha): 1 to 24%
inhibition (IL6): 50 to 74%

IC50 [1]: > 1000 nM
SMILES: CCOc1cc(Nc2nc(-c3nccn3C)nn3cc(-c4ccn(C)n4)c(C)c23)n[nH]1 [Compound 260, N-(5-Ethoxy-1H-pyrazol-3-yl)-5-methyl-2-(1-methyl-1H-imidazol-2-yl)-6-(1-methyl-1H-pyrazol-3-yl)pyrrolo[2,1-f][1,2,4]triazin-4-amine]
% inh of Akt phosphorylation in Panc-1 (Akt phosphorylation): C* (46-84% activation)
inhibition at 10 µM (TNF-alpha): 25 to 49%
inhibition (IL6): 75 to 100%

IC50 [1]: > 1000 nM
SMILES: Cc1c(-c2ccn(C)n2)cn2nc(-c3nccn3C)nc(N3CCc4cc(C(F)(F)F)cnc43)c12 [Compound 251, 5-Methyl-2-(1-methyl-1H-imidazol-2-yl)-6-(1-methyl-1H-pyrazol-3-yl)-4-(5-(trifluoromethyl)-2,3-dihydro-1H-pyrrolo[2,3-b]pyridin-1-yl)pyrrolo[2,1-f][1,2,4]triazine]
% inh of Akt phosphorylation in Panc-1 (Akt phosphorylation): A (1-25% inhibition)
